This is an account of results in ChEMBL document CHEMBL1143322, “Probing UDP-galactopyranose mutase binding pocket: a dramatic effect on substitution of the 6-position of UDP-galactofuranose” (Bioorg Med Chem Lett, 2009).

pKd: −log10 of the molar value.

In the first assay the test system is Escherichia coli. In words: Inhibition of Escherichia coli UDP-galactopyranose mutase assessed as inhibition of conversion to UDP-galactopyranose. The note with it: concentration not given here.
Regarding `O=c1ccn([C@@H]2O[C@H](COP(=O)(O)OP(=O)(O)O[C@H]3O[C@@H]([C@@H](O)CF)[C@H](O)[C@H]3O)[C@@H](O)[C@H]2O)c(=O)[nH]1`, the inhibition was found to be 20%.
The same measure, in the same setting: the value for `O=c1ccn([C@@H]2O[C@H](COP(=O)(O)OP(=O)(O)O)[C@@H](O)[C@H]2O)c(=O)[nH]1` [URIDINE_DIPHOSPHATE] was 22%.

In the next assay the test system is Escherichia coli. In words: Activity of Escherichia coli UDP-galactopyranose mutase by HPLC.
Settings: not given
With `O=c1ccn([C@@H]2O[C@H](COP(=O)(O)OP(=O)(O)O[C@H]3O[C@@H]([C@@H](O)CO)[C@H](O)[C@H]3F)[C@@H](O)[C@H]2O)c(=O)[nH]1`, the Km is 65 µM and the kcat came to 0.033 s⁻¹.
In the case of `O=c1ccn([C@@H]2O[C@H](COP(=O)(O)OP(=O)(O)O[C@H]3O[C@@H]([C@@H](O)CO)[C@H](O)[C@H]3O)[C@@H](O)[C@H]2O)c(=O)[nH]1`, the Km is 22 µM and the catalytic constant (kcat) is 27 s⁻¹.
The corresponding values for `O=c1ccn([C@@H]2O[C@H](COP(=O)(O)OP(=O)(O)O[C@H]3O[C@@H]([C@@H](O)CF)[C@H](O)[C@H]3O)[C@@H](O)[C@H]2O)c(=O)[nH]1` are 24000 µM and 7.4 s⁻¹.
The corresponding values for `O=c1ccn([C@@H]2O[C@H](COP(=O)(O)OP(=O)(O)O[C@H]3O[C@@H](CO)[C@H](O)[C@H]3O)[C@@H](O)[C@H]2O)c(=O)[nH]1` are 600 µM and 12 s⁻¹.
With `O=c1ccn([C@@H]2O[C@H](COP(=O)(O)OP(=O)(O)O[C@H]3O[C@@H]([C@@H](O)CO)[C@H](F)[C@H]3O)[C@@H](O)[C@H]2O)c(=O)[nH]1`, the Km amounted to 861 µM and the kcat amounted to 5.7 s⁻¹.

Test system in another assay: not listed separately
The experiment in a line: Binding affinity to Escherichia coli UDP-galactopyranose mutase.
Settings: not given
Turning to `O=c1ccn([C@@H]2O[C@H](COP(=O)(O)OP(=O)(O)O)[C@@H](O)[C@H]2O)c(=O)[nH]1` [URIDINE_DIPHOSPHATE], the pKd was 4.85.

Another assay deals with Escherichia coli. In words: Ratio of Kcat to Km of Escherichia coli UDP-galactopyranose mutase. Also on record: unit not given here.
Settings: not given
`O=c1ccn([C@@H]2O[C@H](COP(=O)(O)OP(=O)(O)O[C@H]3O[C@@H]([C@@H](O)CO)[C@H](O)[C@H]3F)[C@@H](O)[C@H]2O)c(=O)[nH]1`: the kcat/Km came out at 0.00041.
Still for that read-out and setting: then `O=c1ccn([C@@H]2O[C@H](COP(=O)(O)OP(=O)(O)O[C@H]3O[C@@H]([C@@H](O)CO)[C@H](O)[C@H]3O)[C@@H](O)[C@H]2O)c(=O)[nH]1`, with 1.23; and `O=c1ccn([C@@H]2O[C@H](COP(=O)(O)OP(=O)(O)O[C@H]3O[C@@H]([C@@H](O)CF)[C@H](O)[C@H]3O)[C@@H](O)[C@H]2O)c(=O)[nH]1`, with 0.00034.
Regarding `O=c1ccn([C@@H]2O[C@H](COP(=O)(O)OP(=O)(O)O[C@H]3O[C@@H](CO)[C@H](O)[C@H]3O)[C@@H](O)[C@H]2O)c(=O)[nH]1`, the kcat/Km stood at 0.02.
Regarding `O=c1ccn([C@@H]2O[C@H](COP(=O)(O)OP(=O)(O)O[C@H]3O[C@@H]([C@@H](O)CO)[C@H](F)[C@H]3O)[C@@H](O)[C@H]2O)c(=O)[nH]1`, the kcat/Km was found to be 0.0054.

A word on the inhibition: it is the relative decrease from the control value, in per cent. Usually Km stands for the substrate concentration at which the rate is half of its maximum. What is called kcat is the maximal rate divided by the concentration of active sites. The term pKd denotes the Kd on a negative log10 scale, so that one unit is a factor of ten.
